The target in assay [1] is T1, AF9-DOT1L interaction (Homo sapiens, UniProt P42568).
T1 construct: cDNA for human AF9 AHD domain (475-568) and ENL AHD domain (489-559) was synthesized; made in house; host or cells: E. coli BL21(DE3)
T1 sequence (P42568 475-568): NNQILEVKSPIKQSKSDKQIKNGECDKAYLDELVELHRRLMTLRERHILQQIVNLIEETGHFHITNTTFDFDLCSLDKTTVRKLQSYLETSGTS
In words: Alpha assay, AF9 AHD-DOT1L peptide interaction. Type of assay: binding. Conditions: for IC50: read-out: IC50, inhibition of AF9-DOT1L interaction. From the text: (§1) We developed an Alpha (amplified luminescent proximity homogeneous assay) assay to determine the binding and inhibition of the PPI between maltose-binding protein (MBP)-tagged AF9 AHD and a biotin-labeled DOT1L peptide, using AlphaLisa streptavidin donor beads and anti-MBP acceptor beads. Laser excitation to the donor beads generates singlet oxygen radicals, which can travel for <200 nm in solution and cannot reach the free acceptor beads. The PPI brings the DOT1L coated donor beads and AHD coated acceptor beads together, allowing the radicals to activate the acceptor beads and produce luminescence. […] We also developed a fluorescence polarization (FP) assay. A fluorescein-labeled DOT1L peptide has a higher freedom in solution with a lower polarization value.
(§2) Alpha assays. Alpha assays were developed using Perkin-Elmer AlphaLisa anti-MBP kit, which contains streptavidin donor beads and anti-MBP acceptor beads. The assay was performed using a MBP-protein (5 nM), a biotinylated peptide (40 nM), and increasing concentrations of a compound in 25 µL buffer (PBS with 0.5 % BSA, pH 7.5) in 384-well plates according to the manufacturer's protocol and measured with a Tecan SPARK microplate reader. Data were imported into Prism (version 5.0), and IC50 values from 3 independent experiments with standard deviation were obtained by using a standard dose-response curve fitting.

Another assay deals with T2, AF9-AF4 interaction (Homo sapiens, UniProt P42568).
T2 construct: cDNA for human AF9 AHD domain (475-568) and ENL AHD domain (489-559) was synthesized; made in house; host or cells: E. coli BL21(DE3)
Put plainly: Alpha assay, AF9-AF4 interaction. It is filed as binding. Conditions: read-out: IC50, inhibition of AF9-AF4 interaction. The procedure:
(§3) ENL is also a major MLL fusion partner (~10%). The AHD domains of human ENL and AF9 share a high homology with 82% identity and 89% similarity (Figure S1A). […] Our attempts to develop an Alpha assay for ENL-DOT1L failed. […] Compound 1's activity against ENL-DOT1L was therefore not determined.
as §2

A further assay concerns the target T3, AF9-AFF4 interaction (Homo sapiens, UniProt P42568).
T3 construct: cDNA for human AF9 AHD domain (475-568) and ENL AHD domain (489-559) was synthesized; made in house; host or cells: E. coli BL21(DE3)
Put plainly: Alpha assay, AF9-AFF4 interaction. Particulars: read-out: IC50, inhibition of AF9-AFF4 interaction. Type of assay: binding. The procedure:
as §3, §2

In a further assay the target is T4, ENL-AFF4 interaction (Homo sapiens, UniProt Q03111).
T4 construct: ENL AHD domain (489-559) was synthesized (by Genscript) and inserted into the pMAL c5X expression plasmid; made in house; host or cells: E. coli BL21(DE3)
In words: Alpha assay, ENL-AFF4 interaction. Particulars: read-out: IC50, inhibition of ENL-AFF4 interaction. It is filed as binding. The procedure: as §3, §2

The next assay addresses T5, ENL-AF4 interaction (Homo sapiens, UniProt Q03111).
T5 construct: ENL AHD domain (489-559) was synthesized (by Genscript) and inserted into the pMAL c5X expression plasmid; made in house; host or cells: E. coli BL21(DE3)
Put plainly: Alpha assay, ENL-AF4 interaction. Type of assay: binding. Particulars: read-out: IC50, inhibition of ENL-AF4 interaction. The procedure:
as §3, §2

The target of assay [2] is T1, AF9-DOT1L interaction. In words: Fluorescence polarization (FP) inhibition assay, AF9-DOT1L. It is filed as binding.
From the text: as §1
Fluorescence polarization assay. It was performed in 96-well black microplates with each well containing a Fluorescein-labeled peptide (2 nM) and increasing concentration of a AF9/ENL protein in a buffer (20 mM HEPES, pH 7.5, 0.01% Triton X-100, 100 µL) for Kd determination. For IC50 determination, a Fluorescein-labeled peptide (2 nM), AF9/ENL protein (100 nM) and increasing concentration of a compound in the same buffer were placed in each well. Upon incubation of 1h, the FP value of each well was determined using a Tecan SPARK microplate reader. Data were similarly processed to obtain Kd or IC50 values.
A general note: Fluorescence polarisation rises when a labelled molecule tumbles more slowly, as on binding a larger partner.

The target of assay [3] is T6, maltose-binding protein (MBP)-tagged AF9 AHD domain (475-568) (human, UniProt P42568 475-568).
T6 construct: human AF9, AHD domain, residues 475-568; cDNA synthesized by Genscript, in pMAL c5X; No cleavage of MBP is described; the protein is captured or detected by anti-MBP in the Alpha and pull-down assays; also called MBP-AF9 AHD; source: E. coli BL21(DE3), purified (amylose resin, size exclusion)
T6 sequence (looked up): T1 sequence (P42568 475-568)
In words: fluorescence polarisation; direct titration: fluorescein-labeled peptide 2 nM, increasing concentration of AF9/ENL protein; 20 mM HEPES, pH 7.5, 0.01% Triton X-100; 1 h incubation. Particulars: both partners purified.

In assay [4] the target is T7, maltose-binding protein (MBP)-tagged ENL AHD domain (489-559) (human, UniProt Q03111 489-559).
T7 construct: human ENL, AHD domain, residues 489-559; cDNA synthesized by Genscript, in pMAL c5X; No cleavage of MBP is described; source: E. coli BL21(DE3), purified (amylose resin, size exclusion)
T7 sequence (looked up): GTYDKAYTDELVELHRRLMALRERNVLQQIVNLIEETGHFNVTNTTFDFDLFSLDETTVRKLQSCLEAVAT
The description is as above. Conditions: both partners purified.

No end group written: not given here. *: point of attachment. FITC = O=C1OC2(c3ccc(O)cc3Oc3cc(O)ccc32)c2ccc(NC(=S)*)cc21; Ahx = NCCCCCC(=O)O

For orientation: IC50 means the midpoint of a concentration-inhibition curve. As for `CC(C)(C)c1ccc(-n2cc(C(=O)NCC3CCNCC3)nc2-c2ccccc2)cc1` [Compound 8], the IC50 at AF9-DOT1L interaction [1] amounted to 29.2 µM.
As to `CC(C)(C)c1ccc(-n2cc(C(=O)Nc3ccc(Cl)c(F)c3)nc2-c2ccccc2)cc1` [Compound 9], at AF9-DOT1L interaction [1], the “IC50, inhibition of AF9-DOT1L interaction” value was “inactive” and the IC50 was greater than 50 µM.
With NKLPVSIPLASVVLPSRAERARST [DOT1L], the IC50 at AF9-AF4 interaction was 60 ± 12 nM; on AF9-AFF4 interaction it was 95 ± 16 nM; at ENL-AFF4 interaction it was 2000 ± 100 nM; at AF9-DOT1L interaction [1], 0.013 ± 0.001 µM; on ENL-AF4 interaction, 13.2 ± 1.1 µM; at AF9-DOT1L interaction [2], 72 nM.

B1: FITC-AHX-DOT1L peptide (peptide)
peptide: {FITC-Ahx}-NKLPVSIPLASVVLPSRAERARST
notes: Used in the FP assay; also called fluorescein-labeled DOT1L peptide; source: synthetic peptide, bought: Genscript
A word on the Kd: it is the free concentration of one partner at which half of the binding sites on the other are occupied at equilibrium, for simple one-to-one binding. A lower Kd goes with a tighter complex. As for B1, the values for the Kd in assay [3] and in assay [4] were 87 ± 9 nM and 640 ± 60 nM, respectively.

B2: FITC-AHX-AFF4 peptide (peptide)
peptide: {FITC-Ahx}-YPLIVKIDLNLLTRIPGKPYK
notes: Used in the FP assay; source: synthetic peptide, bought: Genscript
Regarding B2, the Kd in assay [3] amounted to 15 ± 1 nM; in assay [4] it was 31 ± 6 nM.

B3: FITC-AHX-AF4 peptide (peptide)
peptide: {FITC-Ahx}-QSLMVKITLDLLSRIPQPPGK
notes: as for B2
In the case of B3, the equilibrium dissociation constant (Kd) in assay [3] worked out at 18 ± 1 nM; in assay [4] it was 9.6 ± 1.7 nM.
